Values of other authors in article PMC6095608 (PLoS ONE, 2018).

Test system: rats
Conditions: co-administered trimethoprim; cited from earlier work

SMILES: COc1cc(Cc2cnc(N)nc2N)cc(OC)c1OC [trimethoprim]
- Effect on lamivudine accumulation in the renal cortex: did not impair
